Here are results for 1 substance from patent US20080152715A1, “Method for preparing nanoparticles comprising vitamin K and poly-isopropyl-butyl methacrylate-acrylic acid copolymer with supercritical fluid using molecular association theory” (Seoul National Universtiy Industry Foundation, priority 2006, published 2008).

This data set is described as follows: Particle size measurement using a Particle Size Analyzer. It is filed as physicochemical. The following applies: pretreated vitamin K, before the supercritical process. Here is the method: The pretreated vitamin K has a particle size of 50 to 100 microns. In Examples, the particle sizes of vitamin K nanoparticles prepared by the following conditions were measured using a Particle Size Analyzer. Here, spherical fine particles having a particle size of 50 to 300 nm can be obtained according to the presence or absence of a poly-isopropyl-butyl methacrylate-acrylic acid copolymer as a biodegradable polymer, and the operating conditions.
As shown in the following Table 1, the present Examples represent the operating conditions of the reactor in the step of formation of a spherical structure. The temperature and the pressure of the reactor must be each above 304.2 K and 73.8 bar, which correspond to the critical temperature and the critical pressure of carbon dioxide, respectively. The operating parameters in the reactor are the temperature and the pressure in reactor, the amount of carbon dioxide as a supercritical fluid, and the amount of solution prepared in the preparation step. In Example 1, the solution contains vitamin K of 0.0016 wt % alone without a biodegradable polymer. In Example 2 to 8, the solution contains both of vitamin K of 0.0016 wt % and the poly-isopropyl-butyl methacrylate-acrylic acid copolymer of 0.0014 wt % as a biodegradable polymer. […] In Examples 1 and 3, the change was measured at 313K and 323K by adjusting the reactor temperature. […]

For the substance vitamin K [pretreated vitamin K], the particle size fell in the range of 50 to 100 microns.
